Results on 35 molecules are retold here after patent US20170253562A1, “Nampt Inhibitors” (AbbVie Inc., priority 2011, published 2017).

The structures appear in SMILES notation.

The target in this test is recombinant, human, C-terminally-His tagged NAMPT (Homo sapiens, UniProt P43490). The test can be described thus: Time-Resolved Fluorescence Resonance Energy Transfer (TR-FRET) binding assay of NAMPT. Conditions: 6.8 nM NAMPT, 200 nM probe (Oregon Green 488-conjugated APO866), 2-3 hours. The protocol:
Time-Resolved Fluorescence Resonance Energy Transfer (TR-FRET) Binding Assay of NAMPT
Plates were read with Envision (Laser Lantha low volume protocol) after 2 to 3 hours.
(In TR-FRET formats the signal depends on donor and acceptor labels being close together.)

Sequence of recombinant, human, C-terminally-His tagged NAMPT (P43490 whole entry): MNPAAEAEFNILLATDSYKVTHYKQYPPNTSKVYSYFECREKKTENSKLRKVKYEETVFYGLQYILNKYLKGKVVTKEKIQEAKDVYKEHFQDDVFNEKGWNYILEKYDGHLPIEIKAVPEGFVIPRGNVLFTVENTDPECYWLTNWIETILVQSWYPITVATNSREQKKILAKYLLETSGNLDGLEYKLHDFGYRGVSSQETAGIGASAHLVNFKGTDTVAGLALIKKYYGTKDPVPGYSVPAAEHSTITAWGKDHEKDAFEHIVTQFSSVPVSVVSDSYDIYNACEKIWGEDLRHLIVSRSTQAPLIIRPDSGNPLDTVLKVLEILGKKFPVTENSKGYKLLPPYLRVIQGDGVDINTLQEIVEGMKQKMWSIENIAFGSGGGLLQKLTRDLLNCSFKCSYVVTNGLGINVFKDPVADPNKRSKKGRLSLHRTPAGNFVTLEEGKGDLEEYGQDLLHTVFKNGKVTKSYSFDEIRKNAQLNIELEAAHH

Consider `O=C(NCC1CC12CCNCC2)c1ccc(NC(=O)N2Cc3ccccc3C2)nn1` (centres unmarked) [Example 40, N-{6-[(6-azaspiro[2.5]oct-1-ylmethyl)carbamoyl]pyridazin-3-yl}-1,3-dihydro-2H-isoindole-2-carboxamide], for which the IC50 came out at 648 nM. To `O=C(Nc1ccc(C(=O)N2CC3(CCCNC3)C2)nn1)N1Cc2ccccc2C1` [Example 28, N-[6-(2,6-diazaspiro[3.5]non-2-ylcarbonyl)pyridazin-3-yl]-1,3-dihydro-2H-isoindole-2-carboxamide] belongs 3150 nM; to `O=C(NCc1nc2c([nH]1)CNCC2)c1ccc(NC(=O)N2Cc3ccccc3C2)nn1` [Example 37, N-{6-[(4,5,6,7-tetrahydro-3H-imidazo[4,5-c]pyridin-2-ylmethyl)carbamoyl]pyridazin-3-yl}-1,3-dihydro-2H-isoindole-2-carboxamide], 934 nM; to `O=C(Nc1ccc(C(=O)N2CCC3(CNC3)C2)nn1)N1Cc2ccccc2C1` [Example 30, N-[6-(2,6-diazaspiro[3.4]oct-6-ylcarbonyl)pyridazin-3-yl]-1,3-dihydro-2H-isoindole-2-carboxamide], 7190 nM. To `O=C(NC1CCC12CNC2)c1ccc(NC(=O)N2Cc3ccccc3C2)nn1` (centres unmarked) [Example 25, N-[6-(2-azaspiro[3.3]hept-5-ylcarbamoyl)pyridazin-3-yl]-1,3-dihydro-2H-isoindole-2-carboxamide] belongs 2880 nM; to `O=C(NCCN1CCCCCC1)c1ccc(NC(=O)N2Cc3ccccc3C2)cc1` [Example 1, N-(4-{[2-(azepan-1-yl)ethyl]carbamoyl}phenyl)-1,3-dihydro-2H-isoindole-2-carboxamide], 55.6 nM; to `O=C(Nc1ccc(C(=O)N2CCC3(CNCCC3(F)F)C2)nn1)N1Cc2ccccc2C1` (centres unmarked) [Example 16, N-{6-[(10,10-difluoro-2,7-diazaspiro[4.5]dec-2-yl)carbonyl]pyridazin-3-yl}-1,3-dihydro-2H-isoindole-2-carboxamide], 116 nM. To `O=C(Nc1ccc(C(=O)N2CCC3(CCOC3)C2)nn1)N1Cc2ccccc2C1` (centres unmarked) [Example 15, N-[6-(2-oxa-7-azaspiro[4.4]non-7-ylcarbonyl)pyridazin-3-yl]-1,3-dihydro-2H-isoindole-2-carboxamide] belongs 578 nM. Take `O=C(NCCN1CCNC1=O)c1ccc(NC(=O)N2Cc3ccccc3C2)cc1` [Example 3, N-(4-{[2-(2-oxoimidazolidin-1-yl)ethyl]carbamoyl}phenyl)-1,3-dihydro-2H-isoindole-2-carboxamide]: the IC50 was determined as 32.6 nM. To `O=C(Nc1ccc(C(=O)N2CCC3(CCCO3)C2)nn1)N1Cc2ccccc2C1` (centres unmarked) [Example 19, N-[6-(1-oxa-7-azaspiro[4.4]non-7-ylcarbonyl)pyridazin-3-yl]-1,3-dihydro-2H-isoindole-2-carboxamide] belongs 394 nM; to `O=C(Nc1ccc(C(=O)N2CCC3(CC2)CNC3)nn1)N1Cc2ccccc2C1` [Example 34, N-[6-(2,7-diazaspiro[3.5]non-7-ylcarbonyl)pyridazin-3-yl]-1,3-dihydro-2H-isoindole-2-carboxamide], 218 nM. Regarding `O=C(Nc1ccc(C(=O)N2CCC3(CCNCC3)C2)nn1)N1Cc2ccccc2C1` [Example 35, N-[6-(2,8-diazaspiro[4.5]dec-2-ylcarbonyl)pyridazin-3-yl]-1,3-dihydro-2H-isoindole-2-carboxamide], the IC50 amounted to 404 nM. Under `O=C(Nc1ccc(C(=O)N2CCOC3(CCOC3)C2)nn1)N1Cc2ccccc2C1` (centres unmarked) [Example 12, N-[6-(2,6-dioxa-9-azaspiro[4.5]dec-9-ylcarbonyl)pyridazin-3-yl]-1,3-dihydro-2H-isoindole-2-carboxamide] stands 2050 nM; under `O=C(NCC1(F)CCNCC1)c1ccc(NC(=O)N2Cc3ccccc3C2)nn1` [Example 43, N-(6-{[(4-fluoropiperidin-4-yl)methyl]carbamoyl}pyridazin-3-yl)-1,3-dihydro-2H-isoindole-2-carboxamide], 2880 nM; under `O=C(NCC1COC2(CCNCC2)C1)c1ccc(NC(=O)N2Cc3ccccc3C2)nn1` (centres unmarked) [Example 33, N-{6-[(1-oxa-8-azaspiro[4.5]dec-3-ylmethyl)carbamoyl]pyridazin-3-yl}-1,3-dihydro-2H-isoindole-2-carboxamide], 284 nM. To `O=C(Nc1ccc(C(=O)N2CC3(CCCO3)C2)nn1)N1Cc2ccccc2C1` [Example 41, N-[6-(5-oxa-2-azaspiro[3.4]oct-2-ylcarbonyl)pyridazin-3-yl]-1,3-dihydro-2H-isoindole-2-carboxamide] belongs 344 nM.

On to `CC1(CNC(=O)c2ccc(NC(=O)N3Cc4ccccc4C3)cc2)CCCO1` (centres unmarked) [Example 5, N-(4-{[(2-methyltetrahydrofuran-2-yl)methyl]carbamoyl}phenyl)-1,3-dihydro-2H-isoindole-2-carboxamide], for which the IC50 is 6.92 nM. Regarding `O=C(Nc1ccc(C(=O)N2CCCC3(CCNC3)C2)nn1)N1Cc2ccccc2C1` (centres unmarked) [Example 22, N-[6-(2,7-diazaspiro[4.5]dec-7-ylcarbonyl)pyridazin-3-yl]-1,3-dihydro-2H-isoindole-2-carboxamide], the IC50 was determined as 1270 nM. To `O=C(Nc1ccc(C(=O)N2CC3(CCCCO3)C2)nn1)N1Cc2ccccc2C1` [Example 46, N-[6-(5-oxa-2-azaspiro[3.5]non-2-ylcarbonyl)pyridazin-3-yl]-1,3-dihydro-2H-isoindole-2-carboxamide] belongs 261 nM.

For the molecule `O=C(NCCC1CCCCO1)c1ccc(NC(=O)N2Cc3ccccc3C2)cc1` (centres unmarked) [Example 4, N-(4-{[2-(tetrahydro-2H-pyran-2-yl)ethyl]carbamoyl}phenyl)-1,3-dihydro-2H-isoindole-2-carboxamide], the IC50 turned out to be 4.08 nM. To `O=C(NCC1CC2(CCNCC2)C1)c1ccc(NC(=O)N2Cc3ccccc3C2)nn1` [Example 48, N-{6-[(7-azaspiro[3.5]non-2-ylmethyl)carbamoyl]pyridazin-3-yl}-1,3-dihydro-2H-isoindole-2-carboxamide] belongs 68.9 nM. Under `O=C(Nc1ccc(C(=O)N2CCC3OCCC3C2)nn1)N1Cc2ccccc2C1` (centres unmarked) [Example 10, N-[6-(hexahydrofuro[3,2-c]pyridin-5(4H)-ylcarbonyl)pyridazin-3-yl]-1,3-dihydro-2H-isoindole-2-carboxamide] stands 952 nM; under `O=C(Nc1ccc(C(=O)N2CCC3(CCNCC3)C2C(F)(F)F)nn1)N1Cc2ccccc2C1` (centres unmarked) [Example 47, N-(6-{[1-(trifluoromethyl)-2,8-diazaspiro[4.5]dec-2-yl]carbonyl}pyridazin-3-yl)-1,3-dihydro-2H-isoindole-2-carboxamide], 5850 nM; under `O=C(Nc1ccc(C(=O)N2CC3COCC3C2)nn1)N1Cc2ccccc2C1` (centres unmarked) [Example 9, N-[6-(tetrahydro-1H-furo[3,4-c]pyrrol-5(3H)-ylcarbonyl)pyridazin-3-yl]-1,3-dihydro-2H-isoindole-2-carboxamide], 442 nM. For the molecule `O=C(Nc1ccc(C(=O)N2CCC3(CNCCC3F)C2)nn1)N1Cc2ccccc2C1` (centres unmarked) [Example 20, N-{6-[(10-fluoro-2,7-diazaspiro[4.5]dec-2-yl)carbonyl]pyridazin-3-yl}-1,3-dihydro-2H-isoindole-2-carboxamide], the IC50 stood at 406 nM. To `O=C(Nc1ccc(C(=O)N2CCC(C3CNC3)C2)nn1)N1Cc2ccccc2C1` (centres unmarked) [Example 36, N-(6-{[3-(azetidin-3-yl)pyrrolidin-1-yl]carbonyl}pyridazin-3-yl)-1,3-dihydro-2H-isoindole-2-carboxamide] belongs 791 nM. Under `O=C(NC1[C@H]2CNC[C@@H]12)c1ccc(NC(=O)N2Cc3ccccc3C2)nn1` (stereo partly drawn) [Example 26, N-{6-[(1R,5S)-3-azabicyclo[3.1.0]hex-6-ylcarbamoyl]pyridazin-3-yl}-1,3-dihydro-2H-isoindole-2-carboxamide] stands 2890 nM; under `O=C(Nc1ccc(C(=O)N2CCC3(CCNCC3)CC2)nn1)N1Cc2ccccc2C1` [Example 21, N-[6-(3,9-diazaspiro[5.5]undec-3-ylcarbonyl)pyridazin-3-yl]-1,3-dihydro-2H-isoindole-2-carboxamide], 101 nM; under `O=C(Nc1ccc(C(=O)N2CC3(CNC3)C2)nn1)N1Cc2ccccc2C1` [Example 44, N-[6-(2,6-diazaspiro[3.3]hept-2-ylcarbonyl)pyridazin-3-yl]-1,3-dihydro-2H-isoindole-2-carboxamide], 10000 nM. To `O=C(NCc1nnc2n1CCCNC2)c1ccc(NC(=O)N2Cc3ccccc3C2)nn1` [Example 39, N-{6-[(6,7,8,9-tetrahydro-5H-[1,2,4]triazolo[4,3-a][1,4]diazepin-3-ylmethyl)carbamoyl]pyridazin-3-yl}-1,3-dihydro-2H-isoindole-2-carboxamide] belongs 3260 nM; to `O=C(Nc1ccc(C(=O)N2CCC3(CC2)COC3)nn1)N1Cc2ccccc2C1` [Example 8, N-[6-(2-oxa-7-azaspiro[3.5]non-7-ylcarbonyl)pyridazin-3-yl]-1,3-dihydro-2H-isoindole-2-carboxamide], 92.2 nM. Turning to `O=C(Nc1ccc(C(=O)N2CC3(COC3)C2)nn1)N1Cc2ccccc2C1` [Example 13, N-[6-(2-oxa-6-azaspiro[3.3]hept-6-ylcarbonyl)pyridazin-3-yl]-1,3-dihydro-2H-isoindole-2-carboxamide], the IC50 is 626 nM. Under `O=C(NCC1CCC2(CCNCC2)CO1)c1ccc(NC(=O)N2Cc3ccccc3C2)nn1` (centres unmarked) [Example 31, N-{6-[(2-oxa-9-azaspiro[5.5]undec-3-ylmethyl)carbamoyl]pyridazin-3-yl}-1,3-dihydro-2H-isoindole-2-carboxamide] stands 253 nM; under `O=C(Nc1ccc(C(=O)N2CC3CCOC3C2)nn1)N1Cc2ccccc2C1` (centres unmarked) [Example 11, N-[6-(hexahydro-5H-furo[2,3-c]pyrrol-5-ylcarbonyl)pyridazin-3-yl]-1,3-dihydro-2H-isoindole-2-carboxamide], 270 nM. For `O=C(NCC1CCC2(CCNCC2)O1)c1ccc(NC(=O)N2Cc3ccccc3C2)nn1` (centres unmarked) [Example 32, N-{6-[(1-oxa-8-azaspiro[4.5]dec-2-ylmethyl)carbamoyl]pyridazin-3-yl}-1,3-dihydro-2H-isoindole-2-carboxamide], the IC50 is 782 nM.

The IC50 is the concentration that gives 50% inhibition.
